The series relates to healthy male subjects. Nature of the series: Pharmacokinetic interaction study in healthy males: safety and tolerability. The note with it: healthy males. In kind it is in vivo, human. As to the method: Safety and tolerability was evaluated throughout the study. The timing of discharge was determined by the Investigator or designee based on safety and tolerability assessment. On dosing days, subjects remained in the research unit for a minimum of 1 h after dosing prior to discharge. On Day 4, on the first day of 10-nitro-9(E)-octadec-9-enoic acid dosing, subjects remained in the unit for 4 to 6 h after dosing prior to discharge to assess safety and tolerability.
Safety and PK assessments were evaluated throughout the study. During the in-house portion of the study, urine was collected over the 24-h period on Day 2 and Day 12.
Safety was evaluated by physical examinations; adverse events (AEs); vital signs (blood pressure, heart rate, respiratory rate); clinical laboratory values (hematology, biochemistry, and urinalysis), specifically, serum Mg and CPK and electrocardiograms (ECGs).
Triplicate ECGs were obtained just prior to the start of dosing on Day 1 and single ECGs were obtained at all other time points. The average of the 3 ECG interval measurements at the pre-dose time point was considered as baseline. All 12-Lead ECGs were obtained after the subject has rested in a fully supine position for at least 10 minutes. There were no clinically significant abnormalities reported on any electrocardiogram (ECG) parameter. There were no QT/QTcF interval prolongations observed during the study.

The values below come from US10537541B2, “Treatment of focal segmental glomerular sclerosis (FSGS) using therapeutically effective oral doses of 10-nitro-9(E)-octadec-9-enoic acid” (Complexa, Inc., priority 2015, dated 2020).

Consider `CCCCCCCC/C(=C\CCCCCCCC(=O)O)[N+](=O)[O-]` [CXA-10, 10-nitro-9(E)-octadec-9-enoic acid], for which, where the note is “150 mg daily with food”, the “GI AEs related to 10-nitro-9(E)-octadec-9-enoic acid” value is reported as “not observed”. Also, the serum creatinine levels result (150 mg daily) is recorded as “no changes”. Further, where the note is “150 mg daily, Day 2 versus Day 12”, the “24-hour urine creatinine excretion measurements” value is “nor any relevant changes”.
